In patent US9643946B2, “Tricyclic compound and use thereof” (SK CHEMICALS CO., LTD., priority 2013, dated 2017):

Legend:
human GPR40 protein = human GPR40 protein (Homo sapiens, UniProt O14842); experiment: GPR40 agonist binding inhibition (displacement of 3H-labeled propanoic acid radioligand); details: membrane protein including human GPR40, 3H-labeled propanoic acid radioligand, 25° C., 2 hours; read-out: Half maximal inhibitory concentration
Method: Measurement of 50% Inhibitory Concentration (ID50) for GPR40 Agonist Binding
To examine the efficacy of the compounds according to one exemplary embodiment of the present invention in modulating GPR40, the half maximal inhibitory concentrations (IC50) of the compounds according to one exemplary embodiment of the present invention were measured by Microbeta2™ (PerkinElmer Inc.) using a change in radiation dose emitted from ^3H-labeled propanoic acid (i.e., 3-(4-((2,6′-dimethyl-6-((4-(^3H))-phenylmethoxy)biphenyl-3-yl)methoxy)phenyl)propanoic acid), which is a radioactive isotope which binds to a human GPR40 protein, as an indicator.
Specifically, a test compound was prepared by serial dilution with DMSO, and 100 μL of a binding buffer (including 25 mM HEPES (pH 7.5), 5 mM MgCl2, 100 mM NaCl, and 0.1% free fatty acid BSA; Sigma-Aldrich Corp.) was put into each well of a 96-well transparent plate. Thereafter, each of the diluted compound, propanoic acid which was prepared by dissolving propanoic acid in DMSO to a concentration of 500 mM and not labeled with a radioactive isotope, and DMSO was dispensed at 5 μL per well. ^3H-labeled propanoic acid was dissolved in a binding buffer at a concentration of 1 nM and dispensed at 50 μL into the corresponding wells, and a membrane protein including a human GPR40 protein was dissolved in a binding buffer at a concentration of 20 μg/well and dispensed at 100 μL, into the corresponding wells.
After the dispensation was completed, the plate was incubated at a temperature of 25° C. and a rotary speed of 230 rpm for 2 hours while shaking. A human GPR40 complex was transferred to Filtermat A (PerkinElmer Inc.) using a cell harvester (PerkinElmer Inc.), washed 10 times with 50 mM tris-HCl, dried, and then scintillated using Meltilex (PerkinElmer Inc.). Thereafter, an emitted radiation dose was measured using Microbeta2™. The radiation doses emitted from the complex in the well containing 10 mM unlabeled propanoic acid and the complex in the well containing DMSO alone were set as 0% and 100%, respectively. Thus, a change curve for each of the radiation doses was plotted to calculate the half maximal inhibitory concentration of the test compound.

male ZFDM rats = experiment: Hypoglycemic rate after oral glucose loading in rats; type: in vivo, rat; details: oral 0.1 to 30 mg/kg one hour before glucose loading (1.5 g/kg), blood glucose AUC 0 to 120 minutes versus control
Method: Measurement of Hypoglycemic Rate in Rats
An effect of the compound according to one exemplary embodiment of the present invention on blood glucose inhibition after glucose loading was examined in male ZFDM rats (Japan SLC, Inc.).
Specifically, male ZFDM rats (7 week-old) pre-fed for a week were fasted overnight, and used as an animal to be tested. A test compound was prepared into a 0.5% methylcellulose suspension, which was orally administered to rats at a dose of 0.1 to 30 mg/kg before an hour of glucose loading (1.5 g/kg). As the control, 0.5% methylcellulose was administered. After the glucose administration, blood was drawn from the rats' tails after 0, 15, 30, 60 and 120 minutes to measure a blood glucose level. The area under the curve (AUC) for compound treatment was calculated using a blood glucose change profile from t=0 to 120 minutes, and a hypoglycemic rate (%) for the control was calculated.

human GPR40 protein, sequence (O14842 whole entry): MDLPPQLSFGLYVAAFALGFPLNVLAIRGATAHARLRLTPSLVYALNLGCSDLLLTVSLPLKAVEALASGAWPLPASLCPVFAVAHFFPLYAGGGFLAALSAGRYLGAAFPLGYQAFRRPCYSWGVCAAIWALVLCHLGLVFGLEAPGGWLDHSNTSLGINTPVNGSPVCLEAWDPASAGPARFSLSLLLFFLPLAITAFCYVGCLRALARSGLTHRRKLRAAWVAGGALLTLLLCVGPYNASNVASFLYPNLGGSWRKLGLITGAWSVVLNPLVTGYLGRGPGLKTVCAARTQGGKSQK

Row | IC50 (human GPR40 protein) | Structure (SMILES) | Hypoglycemic rate (male ZFDM rats)
1 | 116 nM | CS(=O)(=O)CCCOc1ccc2c(c1)CCCc1ccc(CNc3ccc([C@H]4C[C@@H]4C(=O)O)cc3)cc1-2 [Example 6, (1S,2S)-2-(4-(((9-(3-(methylsulfonyl)propoxy)-6,7-dihydro-5H-dibenzo[a,c][7]annulen-2-yl)methyl)amino)phenyl)cyclopropanecarboxylic acid] | 18.0%
2 |  | CC#C[C@@H](CC(=O)O)c1ccc(OCc2ccc3c(c2)-c2ccc(OCCCS(C)(=O)=O)cc2CCC3)cc1 [Example 108, (S)-3-(4-((9-(3-(methylsulfonyl)propoxy)-6,7-dihydro-5H-dibenzo[a,c][7]annulen-2-yl)methoxy)phenyl)hex-4-ynoic acid] | 37.5%
